# Measurements taken from paper PMC7503281, “The Structure of Clostridioides difficile SecA2 ATPase Exposes Regions Responsible for Differential Target Recognition of the SecA1 and SecA2-Dependent Systems” (International Journal of Molecular Sciences, 2020).
# Molecular target: T1, CDSecA2 (Clostridioides difficile, UniProt Q183M9)
# T1 construct: gene secA2; pMCSG7, E. coli BL21(DE3); His tag cut by TEV, extra N-terminal SNAAA kept; monomer in crystal
# Assay: X-ray crystallography (cocrystallization)
# Format: binding
# Conditions: 2 mM ATP-γ-S, 4 mM MgCl2, pH 8.3, 20 °C; active site between NBD1 and NBD2, Walker A/B
# T1 sequence (Q183M9 whole entry): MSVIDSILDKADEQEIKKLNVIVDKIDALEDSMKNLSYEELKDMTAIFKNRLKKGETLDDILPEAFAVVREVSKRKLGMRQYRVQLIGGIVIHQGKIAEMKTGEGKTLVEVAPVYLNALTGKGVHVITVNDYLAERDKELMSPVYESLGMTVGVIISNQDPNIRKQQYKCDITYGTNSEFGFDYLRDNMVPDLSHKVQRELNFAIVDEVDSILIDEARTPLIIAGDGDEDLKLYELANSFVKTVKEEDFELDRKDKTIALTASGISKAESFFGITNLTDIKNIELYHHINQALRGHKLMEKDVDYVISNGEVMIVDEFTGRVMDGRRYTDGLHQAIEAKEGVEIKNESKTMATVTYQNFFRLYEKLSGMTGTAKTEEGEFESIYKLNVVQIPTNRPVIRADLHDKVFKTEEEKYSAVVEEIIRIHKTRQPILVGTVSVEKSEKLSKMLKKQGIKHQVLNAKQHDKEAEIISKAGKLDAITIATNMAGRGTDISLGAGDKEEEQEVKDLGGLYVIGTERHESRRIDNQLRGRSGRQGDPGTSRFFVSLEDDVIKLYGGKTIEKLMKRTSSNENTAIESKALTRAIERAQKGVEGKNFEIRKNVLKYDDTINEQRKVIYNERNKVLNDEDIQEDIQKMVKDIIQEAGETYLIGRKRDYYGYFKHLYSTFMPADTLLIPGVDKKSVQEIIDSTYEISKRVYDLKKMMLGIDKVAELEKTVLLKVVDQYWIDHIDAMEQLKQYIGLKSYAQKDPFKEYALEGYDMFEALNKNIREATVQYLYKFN
smiles,measurement,value
"Nc1ncnc2c1ncn2[C@@H]1O[C@H](COP(=O)(O)OP(=O)(O)OP(O)(O)=S)[C@@H](O)[C@H]1O [ATP-γ-S, adenosine-5′-(γ-thio)-triphosphate]",X-ray crystallography (cocrystallization),the electron density map for the ATP-γ-S ligand unambiguously positioned it in the active site
